From PubChem BioAssay (NCI)
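Each compound was tested at five concentrations against cells in 96-well plates for 48 hours. Here, GI50 denotes the concentration required for 50% inhibition of growth. TGI: total growth inhibition.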

Legend:
Test in all cases: NCI-60 cell line screen, 48 h
OVCAR-3 ovarian = tested on: OVCAR-3 ovarian
OVCAR-4 ovarian = tested on: OVCAR-4 ovarian
PC-3 prostate = tested on: PC-3 prostate
SNB-19 CNS = tested on: SNB-19 CNS
SN12C renal = tested on: SN12C renal
BT-549 breast = tested on: BT-549 breast
A549 NSCLC = tested on: A549 NSCLC
SK-OV-3 ovarian = tested on: SK-OV-3 ovarian
UO-31 renal = tested on: UO-31 renal
LOX IMVI melanoma = tested on: LOX IMVI melanoma
CAKI-1 renal = tested on: CAKI-1 renal
786-0 renal = tested on: 786-0 renal
NCI-H460 lung = tested on: NCI-H460 lung
SF-539 CNS = tested on: SF-539 CNS
HCT-15 colon = tested on: HCT-15 colon
COLO 205 colon = tested on: COLO 205 colon
U251 CNS = tested on: U251 CNS
HCC-2998 colon = tested on: HCC-2998 colon
MALME-3M melanoma = tested on: MALME-3M melanoma
A498 renal = tested on: A498 renal
MDA-MB-231 breast = tested on: MDA-MB-231 breast
UACC-257 melanoma = tested on: UACC-257 melanoma
SK-MEL-5 melanoma = tested on: SK-MEL-5 melanoma
MDA-MB-435 = tested on: MDA-MB-435
OVCAR-8 ovarian = tested on: OVCAR-8 ovarian
M14 melanoma = tested on: M14 melanoma
HS 578T breast = tested on: HS 578T breast
NCI-H522 lung = tested on: NCI-H522 lung
ACHN renal = tested on: ACHN renal
IGROV1 ovarian = tested on: IGROV1 ovarian
NCI/ADR-RES ovarian = tested on: NCI/ADR-RES ovarian
MCF7 breast = tested on: MCF7 breast
DU-145 prostate = tested on: DU-145 prostate
SW-620 colon = tested on: SW-620 colon
EKVX NSCLC = tested on: EKVX NSCLC
SF-295 CNS = tested on: SF-295 CNS
T-47D breast = tested on: T-47D breast
HOP-62 NSCLC = tested on: HOP-62 NSCLC
SK-MEL-2 melanoma = tested on: SK-MEL-2 melanoma
UACC-62 melanoma = tested on: UACC-62 melanoma
CCRF-CEM leukemia = tested on: CCRF-CEM leukemia
HOP-92 NSCLC = tested on: HOP-92 NSCLC
SNB-75 CNS = tested on: SNB-75 CNS
KM12 colon = tested on: KM12 colon
RXF 393 renal = tested on: RXF 393 renal
RPMI-8226 leukemia = tested on: RPMI-8226 leukemia
SK-MEL-28 melanoma = tested on: SK-MEL-28 melanoma
HCT-116 colon = tested on: HCT-116 colon
NCI-H226 lung = tested on: NCI-H226 lung
TK-10 renal = tested on: TK-10 renal
SF-268 CNS = tested on: SF-268 CNS
OVCAR-5 ovarian = tested on: OVCAR-5 ovarian

CCN1CCN(S(=O)(=O)c2oc(-c3ccc(Cl)cc3)nc2C#N)CC1
GI50 (OVCAR-3 ovarian): 1.95 µM
TGI (OVCAR-3 ovarian): 3.74 µM
GI50 (OVCAR-4 ovarian): 4.04 µM
TGI (OVCAR-4 ovarian): 23.4 µM
GI50 (PC-3 prostate): 13.3 µM
TGI (PC-3 prostate): 26.9 µM
GI50 (SNB-19 CNS): 15.7 µM
TGI (SNB-19 CNS): 29.3 µM
GI50 (SN12C renal): 11.4 µM
TGI (SN12C renal): 24.5 µM
GI50 (BT-549 breast): 4.87 µM
TGI (BT-549 breast): 18.5 µM
GI50 (A549 NSCLC): 17.8 µM
TGI (A549 NSCLC): 35.1 µM
GI50 (SK-OV-3 ovarian): 18.7 µM
TGI (SK-OV-3 ovarian): 36.9 µM
GI50 (UO-31 renal): 4.1 µM
TGI (UO-31 renal): 15.9 µM
GI50 (LOX IMVI melanoma): 1.13 µM
TGI (LOX IMVI melanoma): 2.54 µM
GI50 (CAKI-1 renal): 1.38 µM
TGI (CAKI-1 renal): 2.74 µM
GI50 (786-0 renal): 2.78 µM
TGI (786-0 renal): 8.19 µM
GI50 (NCI-H460 lung): 15.8 µM
TGI (NCI-H460 lung): 39.9 µM
GI50 (SF-539 CNS): 6.47 µM
TGI (SF-539 CNS): 19.8 µM
GI50 (HCT-15 colon): 1.76 µM
TGI (HCT-15 colon): 3.92 µM
GI50 (COLO 205 colon): 2.07 µM
TGI (COLO 205 colon): 3.76 µM
GI50 (U251 CNS): 14.9 µM
TGI (U251 CNS): 30.9 µM
GI50 (HCC-2998 colon): 15.8 µM
TGI (HCC-2998 colon): 31.4 µM
GI50 (MALME-3M melanoma): 2.07 µM
TGI (MALME-3M melanoma): 4.12 µM
GI50 (A498 renal): 29.4 µM
TGI (A498 renal): 82.4 µM
GI50 (MDA-MB-231 breast): 14.5 µM
TGI (MDA-MB-231 breast): 29.1 µM
GI50 (UACC-257 melanoma): 10.8 µM
TGI (UACC-257 melanoma): 23.1 µM
GI50 (SK-MEL-5 melanoma): 15.9 µM
TGI (SK-MEL-5 melanoma): 29.6 µM
GI50 (MDA-MB-435): 4.47 µM
TGI (MDA-MB-435): 16.3 µM
GI50 (OVCAR-8 ovarian): 12.9 µM
TGI (OVCAR-8 ovarian): 27.2 µM
GI50 (M14 melanoma): 3.5 µM
TGI (M14 melanoma): 15.7 µM
GI50 (HS 578T breast): 20.9 µM
TGI (HS 578T breast): 69.4 µM
GI50 (NCI-H522 lung): 1.48 µM
TGI (NCI-H522 lung): 3.06 µM
GI50 (ACHN renal): 1.91 µM
TGI (ACHN renal): 3.42 µM
GI50 (IGROV1 ovarian): 15.8 µM
TGI (IGROV1 ovarian): 37 µM
GI50 (NCI/ADR-RES ovarian): 18.7 µM
TGI (NCI/ADR-RES ovarian): 62.7 µM
GI50 (MCF7 breast): 2.3 µM
TGI (MCF7 breast): 10.4 µM
GI50 (DU-145 prostate): 7.58 µM
TGI (DU-145 prostate): 21 µM
GI50 (SW-620 colon): 1.69 µM
TGI (SW-620 colon): 4.17 µM
GI50 (EKVX NSCLC): 16 µM
TGI (EKVX NSCLC): 29.8 µM
GI50 (SF-295 CNS): 17.3 µM
TGI (SF-295 CNS): 31.8 µM
GI50 (T-47D breast): 2.24 µM
TGI (T-47D breast): 6.24 µM
GI50 (HOP-62 NSCLC): 17.2 µM
TGI (HOP-62 NSCLC): 33.6 µM
GI50 (SK-MEL-2 melanoma): 14.5 µM
TGI (SK-MEL-2 melanoma): 28.3 µM
GI50 (UACC-62 melanoma): 11.2 µM
TGI (UACC-62 melanoma): 24.2 µM
GI50 (CCRF-CEM leukemia): 1 µM
TGI (CCRF-CEM leukemia): 8.75 µM
GI50 (HOP-92 NSCLC): 2.75 µM
TGI (HOP-92 NSCLC): 10.1 µM
GI50 (SNB-75 CNS): 14.1 µM
TGI (SNB-75 CNS): 27.4 µM
GI50 (KM12 colon): 15.7 µM
TGI (KM12 colon): 42.8 µM
GI50 (RXF 393 renal): 1.89 µM
TGI (RXF 393 renal): 3.5 µM
GI50 (RPMI-8226 leukemia): 3.26 µM
TGI (RPMI-8226 leukemia): 13.5 µM
GI50 (SK-MEL-28 melanoma): 3.6 µM
TGI (SK-MEL-28 melanoma): 12.3 µM
GI50 (HCT-116 colon): 2.12 µM
TGI (HCT-116 colon): 6.98 µM
GI50 (NCI-H226 lung): 2.46 µM
TGI (NCI-H226 lung): 7.01 µM
GI50 (TK-10 renal): 12.8 µM
TGI (TK-10 renal): 25.8 µM
GI50 (SF-268 CNS): 11.8 µM
TGI (SF-268 CNS): 41.3 µM
GI50 (OVCAR-5 ovarian): 14.5 µM
TGI (OVCAR-5 ovarian): 29.4 µM
